In brackets after ≈: the same amount, converted by molar mass.
Legend:
Assay in all cases: Antibacterial activity in vitro, MIC by broth microdilution
[1] = system: H. influenzae Hain_49247; format: cell-based, Haemophilus influenzae; details: unit assumed
In short: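 Visible-growth inhibition defined the MIC, obtained by NCCLS broth microdilution at 35° C. over 18-24 hours with a final inoculum of 3×10^5–7×10^5 CFU/mL.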

[2] = system: S. pneumoniae Stpn_Erm S 4297; format: cell-based, Streptococcus pneumoniae
In short: (§1)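 NCCLS microdilution; CAMHB; 2-fold series; 3×10^5–7×10^5 CFU/mL; 35° C., 18-24 h, ambient air except S. pneumoniae (5-10% CO2, lysed horse blood 2-5%). Endpoint: no visible growth.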

[3] = system: S. pneumoniae Stpn_Mef 5654; format: cell-based, Streptococcus pneumoniae; details: unit assumed
In short: as §1

[4] = system: S. pneumoniae Stpn_297-749 Pen R; format: cell-based, Streptococcus pneumoniae
In short: as §1

[5] = system: S. pneumoniae Stpn_280-962 Pen S; format: cell-based, Streptococcus pneumoniae
In short: as §1

[6] = system: S. pneumoniae Stpn_Erm 6849; format: cell-based, Streptococcus pneumoniae
In short: as §1

[7] = system: S. pneumoniae Stpn_49619; format: cell-based, Streptococcus pneumoniae
In short: as §1

[8] = system: S. pneumoniae Stpn_Mef S 3427; format: cell-based, Streptococcus pneumoniae
In short: as §1

[9] = system: S. pyogenes Stpy_8668; format: cell-based
In short: as §1

[10] = system: E. faecalis Enfa_29212; format: cell-based
In short: as §1

[11] = system: S. epidermidis Step_f50654 Pen S; format: cell-based; details: unit assumed
In short: as §1

[12] = system: S. epidermidis Step_14990; format: cell-based; details: unit assumed
In short: as §1

[13] = system: E. coli Esco_25922; format: cell-based; details: Table 3, Strain ID M: E. coli Esco_25922; unit assumed
In short: as §1

[14] = system: S. aureus Stau_29213; format: cell-based; details: Table 5, Strain ID A: S. aureus Stau_29213; unit assumed
In short: as §1

[15] = Table 3, Strain ID L: H. influenzae Hain_49247
[16] = Table 3, Strain ID I: S. pneumoniae Stpn_Erm S 4297, unit assumed
[17] = Table 3, Strain ID J: S. pneumoniae Stpn_Mef 5654
[18] = Table 3, Strain ID F: S. pneumoniae Stpn_297-749 Pen R
[19] = Table 3, Strain ID G: S. pneumoniae Stpn_280-962 Pen S
[20] = Table 3, Strain ID H: S. pneumoniae Stpn_Erm 6849, unit assumed
[21] = Table 3, Strain ID K: S. pneumoniae Stpn_Mef S 3427, unit assumed
[22] = Table 3, Strain ID D: S. pyogenes Stpy_8668, unit assumed
[23] = Table 3, Strain ID C: E. faecalis Enfa_29212, unit assumed
[24] = Table 3, Strain ID B: S. epidermidis Step_f50654 Pen S
[25] = Table 3, Strain ID A: S. epidermidis Step_14990
[26] = Table 3, Strain ID I: S. pneumoniae Stpn_Erm S 4297
[27] = Table 3, Strain ID E: S. pneumoniae Stpn_49619
[28] = Table 3, Strain ID K: S. pneumoniae Stpn_Mef S 3427
[29] = Table 3, Strain ID D: S. pyogenes Stpy_8668
[30] = Table 5, Strain ID M: H. influenzae Hain_49247
[31] = Table 5, Strain ID J: S. pneumoniae Stpn_Erm S 4297, unit assumed
[32] = Table 5, Strain ID K: S. pneumoniae Stpn_Mef 5654
[33] = Table 5, Strain ID G: S. pneumoniae Stpn_297-749
[34] = Table 5, Strain ID H: S. pneumoniae Stpn_280-962
[35] = Table 5, Strain ID D: E. faecalis Enfa_29212, unit assumed
[36] = Table 5, Strain ID C: S. epidermidis Step_f50654
[37] = Table 5, Strain ID B: S. epidermidis Step_14990

Row | Compound | MIC [1, 15] | MIC [2, 16] | MIC [3, 17] | MIC [4, 18] | MIC [5, 19] | MIC [6, 20] | MIC [8, 21] | MIC [9, 22] | MIC [10, 23] | MIC [11, 24] | MIC [12, 25] | MIC [13] | MIC [7, 27] | MIC [9, 29] | other results
1 | CC[C@H]1OC(=O)[C@H](C)C(=O)[C@H](C)[C@@H](O[C@@H]2O[C@H](C)C[C@H](N(C)C)[C@H]2O)[C@@](C)(OC)C[C@@H](C)C(=O)[C@H](C)[C@H]2NC(=O)O[C@@H]21 [Compound 4266] | 25 µg/mL (≈ 41.8 µM) | > 50 µg/mL | 0.2 µg/mL (≈ 0.334 µM) | ≦0.05 | ≦0.05 | > 50 µg/mL | 0.1 µg/mL (≈ 0.167 µM) | 0.1 µg/mL (≈ 0.167 µM) | 1.56 µg/mL (≈ 2.61 µM) | 3.13 µg/mL (≈ 5.23 µM) | 3.13 µg/mL (≈ 5.23 µM) | > 50 µg/mL | – | – | MIC ([7]; Table 3, Strain ID E: S. pneumoniae Stpn_49619, unit assumed): 0.2 µg/mL (≈ 0.334 µM)
2 | CC[C@H]1OC(=O)[C@H](C)C(=O)[C@H](C)[C@@H](O[C@@H]2O[C@H](C)C[C@H](N(C)C)[C@H]2O)[C@@](C)(OC)C[C@@H](C)C(=O)[C@H](C)[C@@H]2[C@@H]1OC(=O)N2CCCCn1cnc(-c2ccccc2)c1 [Compound 4710] | 3.13 µg/mL (≈ 3.93 µM) | – | 0.2 µg/mL (≈ 0.251 µM) | ≦0.5 | ≦0.5 | 0.2 µg/mL (≈ 0.251 µM) | – | – | – | 0.2 µg/mL (≈ 0.251 µM) | 0.1 µg/mL (≈ 0.125 µM) | 50 µg/mL (≈ 62.7 µM) | ≦0.5 | ≦0.5 | MIC [2, 26]: ≦0.05; MIC [8, 28]: ≦0.5; MIC ([10]; Table 3, Strain ID C: E. faecalis Enfa_29212): ≦0.05
3 | CC[C@H]1OC(=O)[C@H](C)C(=O)[C@H](C)[C@@H](O[C@@H]2O[C@H](C)C[C@H](N(C)C)[C@H]2O)[C@@](C)(OC)C[C@@H](C)C(=O)[C@H](C)[C@@H]2[C@@H]1OC(=O)N2CCCn1cnc2cccnc21 [Compound 4716] | 25 µg/mL (≈ 33 µM) | 25 µg/mL (≈ 33 µM) | 0.78 µg/mL (≈ 1.03 µM) | ≦0.5 | ≦0.5 | > 50 µg/mL | 0.4 µg/mL (≈ 0.528 µM) | 0.1 µg/mL (≈ 0.132 µM) | 0.78 µg/mL (≈ 1.03 µM) | 12.5 µg/mL (≈ 16.5 µM) | 6.25 µg/mL (≈ 8.25 µM) | > 50 µg/mL | ≦0.5 | – | –
4 | CC[C@H]1OC(=O)[C@H](C)C(=O)[C@H](C)[C@@H](O[C@@H]2O[C@H](C)C[C@H](N(C)C)[C@H]2O)[C@@](C)(OC)C[C@@H](C)C(=O)[C@H](C)[C@@H]2[C@@H]1OC(=O)N2CCCn1cnc(-c2ccccc2)c1 [Compound 4714] | > 50 µg/mL | 6.25 µg/mL (≈ 7.98 µM) | 0.4 µg/mL (≈ 0.511 µM) | ≦0.5 | ≦0.5 | > 50 µg/mL | 0.1 µg/mL (≈ 0.128 µM) | 0.1 µg/mL (≈ 0.128 µM) | 0.4 µg/mL (≈ 0.511 µM) | 6.25 µg/mL (≈ 7.98 µM) | 6.25 µg/mL (≈ 7.98 µM) | > 50 µg/mL | ≦0.5 | – | –
5 | CC[C@H]1OC(=O)[C@H](C)C(=O)[C@H](C)[C@@H](O[C@@H]2O[C@H](C)C[C@H](N(C)C)[C@H]2O)[C@@](C)(OC)C[C@@H](C)C(=O)[C@H](C)[C@@H]2[C@@H]1OC(=O)N2CCCCn1cnc2ncccc21 [Compound 4713] | 3.13 µg/mL (≈ 4.05 µM) | 0.1 µg/mL (≈ 0.13 µM) | 3.13 µg/mL (≈ 4.05 µM) | ≦0.5 | ≦0.5 | 0.78 µg/mL (≈ 1.01 µM) | 0.4 µg/mL (≈ 0.518 µM) | – | 0.1 µg/mL (≈ 0.13 µM) | 0.4 µg/mL (≈ 0.518 µM) | 0.4 µg/mL (≈ 0.518 µM) | 50 µg/mL (≈ 64.8 µM) | ≦0.5 | ≦0.5 | –
6 | CC[C@H]1OC(=O)[C@H](C)C(=O)[C@H](C)[C@@H](O[C@@H]2O[C@H](C)C[C@H](N(C)C)[C@H]2O)[C@@](C)(OC)C[C@@H](C)C(=O)[C@H](C)[C@H]2N(CCCCn3cnc(-c4ccccc4)c3)C(=O)O[C@]12CC [Compound 7281] | 3.13 µg/mL (≈ 3.79 µM) | – | 0.4 µg/mL (≈ 0.485 µM) | ≦0.05 | ≦0.05 | 0.2 µg/mL (≈ 0.242 µM) | – | – | 0.1 µg/mL (≈ 0.121 µM) | 0.1 µg/mL (≈ 0.121 µM) | 0.2 µg/mL (≈ 0.242 µM) | 25 µg/mL (≈ 30.3 µM) | ≦0.05 | ≦0.05 | MIC [2, 26]: ≦0.05; MIC [8, 28]: ≦0.05
7 | CC[C@H]1OC(=O)[C@H](C)C(=O)[C@H](C)[C@@H](OC2O[C@H](C)C[C@H](N(C)C)[C@H]2O)[C@@](C)(OC)C[C@@H](C)C(=O)[C@H](C)[C@H]2N(CCCOc3cccc(-c4cccnc4)c3)C(=O)O[C@]12CC (stereo partly drawn) [Example 35, (3aS,4R,7R,9R,10R,11S,13R,15R,15aR)-3a,4-diethyl-11-methoxy-7,9,11,13,15-pentamethyl-2,6,8,14-tetraoxo-1-[3-(3-pyridin-3-ylphenoxy)propyl]-tetradecahydro-2H-oxacyclotetradecino[4,3-d][1,3]oxazol-10-yl 3,4,6-trideoxy-3-(dimethylamino)-D-xylo-hexopyranoside] | – | – | – | – | – | – | – | – | – | – | – | – | – | – | MIC [1, 30]: 0.2 µg/mL (≈ 0.239 µM); MIC [2, 31]: 3.13 µg/mL (≈ 3.73 µM); MIC [3, 32]: 0.78 µg/mL (≈ 0.931 µM); MIC [4, 33]: ≦0.05; MIC [5, 34]: ≦0.05; MIC ([6]; Table 5, Strain ID I: S. pneumoniae Stpn_Erm 6849): ≦0.05; MIC ([7]; Table 5, Strain ID F: S. pneumoniae Stpn_49619, unit assumed): 6.25 µg/mL (≈ 7.46 µM); MIC ([8]; Table 5, Strain ID L: S. pneumoniae Stpn_Mef S 3427, unit assumed): 0.78 µg/mL (≈ 0.931 µM); MIC ([9]; Table 5, Strain ID E: S. pyogenes Stpy_8668, unit assumed): 0.2 µg/mL (≈ 0.239 µM); MIC [10, 35]: 0.2 µg/mL (≈ 0.239 µM); MIC [11, 36]: 0.78 µg/mL (≈ 0.931 µM); MIC [12, 37]: 0.78 µg/mL (≈ 0.931 µM); MIC [14]: 0.78 µg/mL (≈ 0.931 µM)
8 | CC[C@H]1OC(=O)[C@H](C)C(=O)[C@H](C)[C@@H](OC2O[C@H](C)C[C@H](N(C)C)[C@H]2O)[C@@](C)(OC)C[C@@H](C)C(=O)[C@H](C)[C@H]2N(CCCCn3cnc4cccnc43)C(=O)O[C@]12CC (stereo partly drawn) [Example 14, (3aS,4R,7R,9R,10R,11S,13R,15R,15aR)-3a,4-diethyl-1-[4-(3H-imidazo[4,5-b]pyridin-3-yl)butyl]-11-methoxy-7,9,11,13,15-pentamethyl-2,6,8,14-tetraoxotetradecahydro-2H-oxacyclotetradecino[4,3-d][1,3]oxazol-10-yl 3,4,6-trideoxy-3-(dimethylamino)-D-xylo-hexopyranoside] | – | – | – | – | – | – | – | – | – | – | – | – | – | – | MIC [1, 30]: 3.13 µg/mL (≈ 3.91 µM); MIC [2, 31]: 0.1 µg/mL (≈ 0.125 µM); MIC [3, 32]: 0.4 µg/mL (≈ 0.5 µM); MIC [4, 33]: ≦0.05; MIC [5, 34]: ≦0.05; MIC ([6]; Table 5, Strain ID I: S. pneumoniae Stpn_Erm 6849, unit assumed): 0.4 µg/mL (≈ 0.5 µM); MIC ([7]; Table 5, Strain ID F: S. pneumoniae Stpn_49619): ≦0.05; MIC ([8]; Table 5, Strain ID L: S. pneumoniae Stpn_Mef S 3427): ≦0.05; MIC ([9]; Table 5, Strain ID E: S. pyogenes Stpy_8668): ≦0.05; MIC [10, 35]: 0.1 µg/mL (≈ 0.125 µM); MIC [11, 36]: 0.2 µg/mL (≈ 0.25 µM); MIC [12, 37]: 0.2 µg/mL (≈ 0.25 µM); MIC [14]: 0.4 µg/mL (≈ 0.5 µM)

From patent US6756359B2, “C12 modified erythromycin macrolides and ketolides having antibacterial activity” (Chiron Corporation, priority 2001, dated 2004)
